# Where two headings read alike, the source gives them in different places. Where no end group is shown, it is not given here.
# Columns and labels:
# S. aureus = conditions: cited from earlier work; for Biofilm disassembly: 10 μM, 100 μM and 500 μM
# [1] = system: C. difficile strain 630Δerm; format: cell-based, Clostridium difficile; conditions: for Effect on biofilm (disassembly): 3 μM D-tyrosine, 2 mM D-methionine, 5 mM D-tryptophan, 8.5 mM D-leucine, mixture 2.5 nM each (FIG. 12)
# [2] = system: C. difficile strain R20291; format: cell-based, Clostridium difficile
# B. subtilis biofilms = conditions: cited from earlier work
# [3] = system: 630Δerm C. difficile biofilms; test: DNase treatment of biofilms visualised by confocal microscopy; format: cell-based, Clostridium difficile; conditions: for Degradation of the biofilm (confocal microscopy): 15 minutes
# Protocol: The untreated controls were incubated for 15 minutes with 0.15 M NaCl and washed with 1×PBS. These coverslips were mounted onto glass slides, a coverslip was applied over a 50% glycerol mounting media and these were sealed with clear nail varnish. The slides were visualised under oil immersion using a ×40 objective using a laser confocal microscope (Zeiss microscope).
# [4] = system: C. difficile strain 630Δerm; test: Inhibition of biofilm formation in TC flasks
# [5] = system: C. difficile R20291 biofilm; test: DNase, RNase and proteinase K digests of biofilm in liquid culture; conditions: 15 minutes
# [6] = system: C. difficile 630Δerm biofilm; test: DNase, RNase and proteinase K digests of biofilm (floc) in liquid culture; conditions: 15 minute treatment, room temperature
# [7] = 3 μM D-tyrosine, 2 mM D-methionine, 5 mM D-tryptophan, 8.5 mM D-leucine, mixture 2.5 nM each
# [8] = 10 μg/ml added prior to inoculation, 6 day incubation, static and shaking
compound,measurement,setting,value
N[C@H](Cc1ccccc1)C(=O)O [D-phenylalanine],Biofilm disassembly,S. aureus,disassembled
N[C@H](Cc1c[nH]c2ccccc12)C(=O)O [D-tryptophan],Biofilm formation,[1],increased the biofilm formation
same,Disruption of biofilms,[1],not disrupted
same,Effect on biofilm (disassembly),[1],no significant effect
same,Biofilm formation,[2],increased the biofilm formation
same,Disruption of biofilms,[2],not disrupted
same,Effect on biofilm (disassembly),[2],no significant effect
same,Biofilm disassembly,B. subtilis biofilms; [7],disassembled
CSCC[C@@H](N)C(=O)O [D-methionine],Effect on biofilm (disassembly),[1],no significant effect
same,Effect on biofilm (disassembly),[2],no significant effect
same,Biofilm disassembly,B. subtilis biofilms; [7],disassembled
O=C(O)[C@H]1CCCN1 [D-proline],Biofilm disassembly,S. aureus,disassembled
"Human beta-defensin 3: cationic peptide shown to inhibit biofilm formation in S. aureus (GIINTLQKYYCRVRGGRCAVLSCLPKEEQIGKCSTRGRKCCRRKK; ends and bridges not checked; cysteine pairing not given here; UniProt P81534 23-67, looked up)",Inhibition of biofilm formation,S. aureus,inhibit biofilm formation
N[C@H](Cc1ccc(O)cc1)C(=O)O [D-tyrosine],Effect on biofilm (disassembly),[1],no significant effect
same,Effect on biofilm (disassembly),[2],no significant effect
same,Biofilm disassembly,B. subtilis biofilms; [7],disassembled
same,Biofilm disassembly,S. aureus,disassembled
CC(C)C[C@@H](N)C(=O)O [D-leucine],Effect on biofilm formation,[1],ineffective
same,Growth of the bacteria,[1],inhibited
same,Effect on biofilm (disassembly),[1],no significant effect
same,Effect on biofilm (disassembly),[2],no significant effect
same,Effect on biofilm formation,[2],ineffective
same,Growth of the bacteria,[2],reduced
same,Biofilm disassembly,B. subtilis biofilms; [7],disassembled
NCCCNCCCN [norspermidine],Biofilm level,[1],significantly reduced
same,Disassembly of biofilm performed in tissue culture flasks,[1],not disrupted
same,Disassembly of biofilms,[1],does not disassemble biofilms
same,Viability,[1],slight decrease in viability
same,Biofilm formation on addition to biofilm cultures,[2],enhances the biofilm formation
same,Disassembly of biofilms,[2],does not disassemble biofilms
same,Biofilm disassembly,"B. subtilis biofilms; norspermidine at 100, 50 and 25 μM",disassemble biofilms
DNase,Degradation of the biofilm (confocal microscopy),[3]; 1 ug DNase,incomplete degradation
same,Degradation of the biofilm (confocal microscopy),[3]; 10 ug DNase,incomplete degradation
same,Degradation of the biofilms (confocal microscopy),"[3]; DNase for 15 minutes, BHIS and YP media, compared to untreated controls",biofilms were absent
same,Bacterial growth (turbidity of media),[4]; [8],"turbid, indicating bacterial growth"
same,Biofilm formation (flocs or aggregates),[4]; [8],no flocs or aggregates were observed
same,Formation of biofilm in liquid media,"[4]; 10 mg/ml in the growth media, incubated statically for six days (FIG. 9)",inhibits the formation of biofilm
same,Degradation of the biofilm,[5]; 1 mg/ml,degradation of the biofilm observed
same,Degradation of the biofilm,[5],degradation of the biofilm observed
same,Degradation of the biofilm (floc produced in static culture),[6]; 100 ug/ml,Degradation of the biofilm was observed
same,Degradation of the biofilm (floc produced in static culture),[6]; 1 mg/ml,Degradation of the biofilm was observed
